Patent US9274101B2 (BIOLOG, Inc., priority 2001, dated 2016)

Key:
HepG2 cells = HepG2 cells cultured on CYTODEX 3 microcarriers, energy sources; format: cell-based, human; conditions: for activity at 30 µM / activity at 100 µM / activity at 330 µM / activity at 1000 µM / activity at 3300 µM / activity at 10000 µM / activity at 15000 µM / activity at 20000 µM: Homo sapiens, HepG2, 68 h, read-out: Responses of HepG2 Cells Cultured on Microcarriers After 68 hours in Culture and a 4 hour Color Development Period
Procedure, shortened: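 HepG2 cells on CYTODEX 3 microcarriers, held in methylcellulose-containing DME with 10% HI FBS lacking glucose, glutamine and pyruvate, exposed to test energy sources at 0.033–20 mM final. After 68 h at 37 °C, MTS/PMS read at 490 nm (ref 650 nm) after 4–8 h; cell-free background subtracted, normalized to % no-energy-source control.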

ten strains of E. coli = format: cell-based, Escherichia coli; also: key: +: indicates that the organism tested was capable of utilizing the carbon source listed; −: indicates that the organism tested was not capable of utilizing the carbon source listed; indicates weak positive reactions
HL-60 cells = HL-60 cells in PM1 and PM2 plates, MTS/MPMS color, % negative control; format: cell-based, human; conditions: L-glutamine 13.7 mM (well E1); citric acid 10.4 mM (well F2)
[1] = system: Salmonella typhimurium auxotrophs hisF645 and pyrCΔ73; format: cell-based

SMILES | carbon source utilization (ten strains of E. coli) | activity at 30 µM (HepG2 cells; Conc. 0.03 mM) [%] | activity at 100 µM (HepG2 cells; Conc. 0.10 mM) [%] | activity at 330 µM (HepG2 cells; Conc. 0.33 mM) [%] | activity at 1000 µM (HepG2 cells; Conc. 1.00 mM) [%] | activity at 3300 µM (HepG2 cells; Conc. 3.3 mM) [%] | activity at 10000 µM (HepG2 cells; Conc. 10 mM) [%] | activity at 15000 µM (HepG2 cells; Conc. 15 mM) [%] | activity at 20000 µM (HepG2 cells; Conc. 20 mM) [%] | also measured
O=C1O[C@@H]([C@H](O)CO)[C@H](O)[C@H]1O [D-gal acid g-lactone] | – | – | – | – | – | – | – | – | – | Responses of HepG2 Cells Cultured on Microcarriers After 68 hours in Culture and a 4 hour Color Development Period (HepG2 cells; Conc. 0.03 mM): 99.4 % of negative control; Responses of HepG2 Cells Cultured on Microcarriers After 68 hours in Culture and a 4 hour Color Development Period (HepG2 cells; Conc. 0.10 mM): 100.2 % of negative control; Responses of HepG2 Cells Cultured on Microcarriers After 68 hours in Culture and a 4 hour Color Development Period (HepG2 cells; Conc. 0.33 mM): 89.0 % of negative control; Responses of HepG2 Cells Cultured on Microcarriers After 68 hours in Culture and a 4 hour Color Development Period (HepG2 cells; Conc. 1.00 mM): 89.4 % of negative control; Responses of HepG2 Cells Cultured on Microcarriers After 68 hours in Culture and a 4 hour Color Development Period (HepG2 cells; Conc. 3.3 mM): 101.7 % of negative control; Responses of HepG2 Cells Cultured on Microcarriers After 68 hours in Culture and a 4 hour Color Development Period (HepG2 cells; Conc. 10 mM): 95.2 % of negative control; Responses of HepG2 Cells Cultured on Microcarriers After 68 hours in Culture and a 4 hour Color Development Period (HepG2 cells; Conc. 15 mM): 98.6 % of negative control; Responses of HepG2 Cells Cultured on Microcarriers After 68 hours in Culture and a 4 hour Color Development Period (HepG2 cells; Conc. 20 mM): 74.1 % of negative control
O=C[C@H](O)[C@@H](O)[C@@H](O)[C@H](O)C(=O)O [D-galacturonic acid] | + | – | – | – | – | – | – | – | – | –
NC(=O)C[C@H](N)C(=O)O [L-asparagine] | + and − | – | – | – | – | – | – | – | – | –
NC(=O)CC[C@H](N)C(=O)O [L-glutamine] | + and − | 110 | 151 | 195 | 211 | 212 | 183 | 150 | 101 | response in words (HL-60 cells): strong positive response; response in words (HepG2 cells; 68 hours culture, responses greater than 140% of the negative control scored positive): narrow range of responsiveness
N[C@@H](Cc1c[nH]cn1)C(=O)O [L-histidine] | – | – | – | – | – | – | – | – | – | growth stimulation (well color) [1]: turned purple
Cc1cn([C@H]2C[C@H](O)[C@@H](CO)O2)c(=O)[nH]c1=O [Thymidine] | + | 87.9 | 101 | 97.9 | 99.4 | 89 | 71.4 | 65.2 | 34.5 | –
